Measurements reported in article PMC3085948 (Journal of medicinal chemistry, 2011).

Assays:
rat FAAH = target: T1, rat FAAH (Rattus norvegicus, UniProt P97612); assay type: biochemical
T1 sequence (P97612 30-579 limits assumed): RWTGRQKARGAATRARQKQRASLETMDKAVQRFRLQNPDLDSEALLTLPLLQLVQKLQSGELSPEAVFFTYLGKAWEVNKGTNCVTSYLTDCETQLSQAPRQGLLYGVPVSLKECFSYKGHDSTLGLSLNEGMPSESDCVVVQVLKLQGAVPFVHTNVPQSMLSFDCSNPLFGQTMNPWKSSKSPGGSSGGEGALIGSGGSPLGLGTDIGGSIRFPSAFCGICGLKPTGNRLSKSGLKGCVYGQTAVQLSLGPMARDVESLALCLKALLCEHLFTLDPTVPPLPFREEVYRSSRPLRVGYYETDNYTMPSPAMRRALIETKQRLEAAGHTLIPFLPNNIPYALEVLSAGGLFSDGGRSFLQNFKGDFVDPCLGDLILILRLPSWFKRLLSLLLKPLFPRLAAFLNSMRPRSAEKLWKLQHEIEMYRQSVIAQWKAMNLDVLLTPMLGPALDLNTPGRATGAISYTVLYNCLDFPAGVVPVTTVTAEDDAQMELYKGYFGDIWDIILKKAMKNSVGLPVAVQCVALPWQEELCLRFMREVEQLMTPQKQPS

human FAAH = test: FAAH inhibition, human FAAH from transfected COS-7 cells; assay type: biochemical; details: active (S)-enantiomers; hFAAH vs rFAAH
acute thermal pain = assay type: in vivo, mice; details: i.v. administration
[1] = tested on: endogenous lipid amide levels (anandamide, PEA, OEA, 2-AG, arachidonic acid); details: for site of effect on lipid levels (brain vs liver) / effect on endogenous levels of 2-AG / effect on endogenous levels of arachidonic acid / effect on endogenous levels of key lipid amides (anandamide, PEA): 30 mg/kg i.p., single mouse; for brain lipid amide levels, oral versus intraperitoneal dosing: p.o. 50 mg/kg vs i.p. 30 mg/kg, 3 mice per group
[2] = tested on: chronic constriction injury (CCI) neuropathic pain; test: CCI mechanical allodynia; assay type: in vivo, mice; details: 50 mg/kg p.o.
[3] = tested on: chronic constriction injury (CCI) neuropathic pain; test: CCI acetone-induced cold allodynia; assay type: in vivo, mice; details: 50 mg/kg p.o.
[4] = assay type: in vivo; details: 50 mg/kg oral, data not shown
[5] = tested on: cannabinoid (CB1 or CB2) or vanilloid receptors; details: background statement; cited from earlier work
[6] = tested on: common P450 metabolism enzymes; details: background statement; cited from earlier work
[7] = tested on: human ether-a-go-go related gene (hERG); details: background statement; cited from earlier work
FAAH knockout mice = details: cited from earlier work
[8] = in vivo; cited from earlier work
[9] = Rat or human liver microsome stability; details: rat, human, microsomes

SMILES | mode of inhibition (Lineweaver–Burk analysis) (rat FAAH) | activity against human versus rat FAAH (human FAAH) | duration of effect (acute thermal pain) | site of effect on lipid levels (brain vs liver) ([1]; 1 h) | brain lipid amide levels, oral versus intraperitoneal dosing [1] | effect on endogenous levels of 2-AG ([1]; 1 h) | effect on endogenous levels of arachidonic acid ([1]; 1 h) | effect on endogenous levels of key lipid amides (anandamide, PEA) ([1]; 1 h) | half-life [9] | other results
O=C(O)c1cccc(-c2cnc(C(=O)C3CCc4cc(Oc5ccccc5)ccc4C3)o2)n1 (stereo not shown) [Compound 14, 6-(2-(6-Phenoxy-1,2,3,4-tetrahydronaphthalene-2-carbonyl)oxazol-5-yl)picolinic Acid] | reversible, competitive inhibitors | 4 fold | 150 min | principally seen peripherally (liver) | matched and even improved on the results observed with i.p. administration |  |  |  |  | time of maximal effect (acute thermal pain): 30 to 60 min; maximal antinociceptive effect (efficacy) (acute thermal pain; tail flick 52 °C): same maximal effect (efficacy) observed with morphine
O=C(c1ncc(-c2ccccn2)o1)C1Cc2ccc(Oc3ccccc3)cc2C1 (stereo not shown) [Compound 27] |  |  |  |  |  | without impacting | minimal impact | increased |  | 
O=C(c1ncc(-c2ccccn2)o1)C1CCc2cc(Oc3ccccc3)ccc2C1 (stereo not shown) [Compound 12, (6-Phenoxy-1,2,3,4-tetrahydronaphthalen-2-yl)(5-(pyridin-2-yl)oxazol-2-yl)methanone] | reversible, competitive inhibitors | no significant distinction |  | observed both in the brain (CNS) and liver (peripheral) | matched and even improved on the results observed with i.p. administration | without impacting | minimal impact | increased |  | duration of effect on mechanical allodynia [2]: > 6 h; mechanical allodynia, control paws [2]: no effect; mechanical allodynia, paws ipsilateral to CCI surgery [2]: significantly attenuated; cold allodynia, control paws [3]: no effect; cold allodynia, paws ipsilateral to CCI surgery [3]: significantly attenuated; duration of effect on cold allodynia [3]: > 9 h; cannabimimetic side effects [4]: did not produce catalepsy, hypothermia, or hypomotility; time of peak brain anandamide levels ([1]; 50 mg/kg p.o.): 1.5 to 3 h; duration of elevation of brain N-acylethanolamines ([1]; 50 mg/kg p.o., time course up to 9 h): ≥ 9 h; increase in brain levels of PEA and OEA ([1]; p.o. 10, 25 and 50 mg/kg, 1 h): 5.5–7.8 fold; increase in brain anandamide levels ([1]; p.o. 25–50 mg/kg, 1 h): 12–13 fold
CN1CC[C@]23c4c5ccc(O)c4O[C@H]2[C@@H](O)C=C[C@H]3[C@H]1C5 [morphine, reference compound] |  |  | 150 min |  |  |  |  |  |  | 
O=C(CCCCCCc1ccccc1)c1ncc(-c2ccccn2)o1 [Compound 2] |  | no significant distinction |  |  |  |  |  |  | 2 to 4 min | binding to cannabinoid (CB1 or CB2) or vanilloid receptors [5]: does not bind; inhibition of common P450 metabolism enzymes [6]: does not significantly inhibit; inhibition of hERG [7]: does not significantly inhibit; antinociception in FAAH knockout mice (FAAH knockout mice): does not produce antinociception; time to establish ketone/alcohol steady state equilibrium [8]: ≤ 15 min
O=C(c1ncc(-c2ccccn2)o1)C1CCc2cc(OCc3ccccc3)ccc2C1 (stereo not shown) [Compound 18] |  |  |  |  |  |  |  |  | 12 to 15 min | 
